Bridges are numbered along the chain shown (N, C = ends). Where no end group is shown, it is not given here.
Legend:
[1] = system: A549 cells; assay: EMT induced by TGF-β1 in A549 cells (morphology, quantitative RT-PCR); assay type: cell-based; details: final concentration 1 μM, A549 cells
Description: Using a 6-well dish, the A549 cells were cultured at 1×10^5 cells/well, and the culture medium was replaced with DMEM culture medium free from FBS the next day. After 24 hours of culture, the cells were used in the following experiment.
An ANP group (ANP solution was added (final concentration: 1 μM)) and a control group (the same amount of physiological saline was added) were prepared, and after 2 hours from the addition, TGF-β1 was added so that the final concentration would be 0.125, 0.25, 0.5, 1.0, and 2.0 ng/mL. After 24 hours had passed, the morphological change in the cells was observed under a microscope and photographed (FIG. 3).
Then, total RNA was collected using TRIZOL total RNA isolation reagent (made by Invitrogen), cDNA was synthesized using reverse transcriptase, and the mRNA levels of E-cadherin, N-cadherin, VEGF-A, PDGF-B, TNF-α, and IL-6 were measured by quantitative RT-PCR. It is known that in EMT, the expression of E-cadherin decreases while the expression of N-cadherin increases. The expression ratio of N-cadherin/E-cadherin is considered to be useful as an indicator of the degree of EMT.

[2] = target: T1, natriuretic peptide receptor GC-B (Homo sapiens, UniProt P20594); details: Furuya et al. 1992; cited from earlier work
T1 sequence (P20594 23-1047): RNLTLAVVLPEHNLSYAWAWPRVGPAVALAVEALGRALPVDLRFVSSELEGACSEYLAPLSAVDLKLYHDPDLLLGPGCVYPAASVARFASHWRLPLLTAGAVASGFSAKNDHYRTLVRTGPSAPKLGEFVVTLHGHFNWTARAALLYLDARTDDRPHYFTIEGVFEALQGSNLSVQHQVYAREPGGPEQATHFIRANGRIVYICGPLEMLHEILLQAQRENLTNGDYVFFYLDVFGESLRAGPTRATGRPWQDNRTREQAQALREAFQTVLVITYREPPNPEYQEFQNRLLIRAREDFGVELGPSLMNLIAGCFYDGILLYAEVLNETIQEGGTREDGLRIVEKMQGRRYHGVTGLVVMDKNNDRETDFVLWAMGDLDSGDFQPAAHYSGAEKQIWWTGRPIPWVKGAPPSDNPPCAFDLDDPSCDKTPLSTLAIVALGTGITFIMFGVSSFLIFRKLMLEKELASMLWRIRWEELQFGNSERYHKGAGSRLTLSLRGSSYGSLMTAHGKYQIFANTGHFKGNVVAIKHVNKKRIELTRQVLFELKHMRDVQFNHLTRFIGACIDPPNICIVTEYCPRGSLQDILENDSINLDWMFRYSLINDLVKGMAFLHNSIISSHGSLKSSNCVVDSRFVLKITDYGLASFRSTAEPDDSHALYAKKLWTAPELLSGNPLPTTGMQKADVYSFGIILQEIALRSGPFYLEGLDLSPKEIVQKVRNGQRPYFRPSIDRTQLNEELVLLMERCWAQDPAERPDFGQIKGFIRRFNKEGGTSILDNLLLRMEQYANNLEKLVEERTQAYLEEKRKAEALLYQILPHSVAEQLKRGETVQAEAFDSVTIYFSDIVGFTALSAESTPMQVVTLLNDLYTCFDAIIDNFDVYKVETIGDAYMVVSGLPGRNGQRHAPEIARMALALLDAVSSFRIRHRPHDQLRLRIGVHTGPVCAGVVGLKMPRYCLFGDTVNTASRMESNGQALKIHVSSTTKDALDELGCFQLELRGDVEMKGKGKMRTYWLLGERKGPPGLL

[3] = system: A549 cells; assay: Intracellular cGMP level in A549 cells on natriuretic peptide stimulus; assay type: cell-based; details: 1×10^−11 M to 1×10^−6 M, 10 minutes
Description: The A549 cells were cultured in a 24-well dish at 4×10^4 cells/well, and the culture medium was replaced with DMEM culture medium free from FCS the next day. To the culture medium, solutions of hANP, hBNP, and hCNP (final concentration: ten-fold serial dilution from 1×10^−11 M to 1×10^−6 M, the same amount of physiological saline was used as a control) were separately added. After 10 minutes passed, 400 μL of cooled 70% ethanol (containing 0.1 N hydrochloric acid) was added, and ultrasonication was performed for a short time. The treated solution was lyophilized, and the cGMP level was measured using Cyclic GMP Assay kit (made by Yamasa Corp.).

[4] = system: mouse melanoma B16-F10; assay: Mouse tail vein injection metastasis test, mouse melanoma B16-F10; assay type: in vivo, mice; details: 2.5 μg/kg/min by subcutaneous osmotic pump, 2 weeks
Description: 6-week-old male […] mice were used (purchased from Japan SLC, Inc.). Mouse melanoma B16-F10 was purchased from ATCC, and cultured in DMEM (Life Technologies Corp.) containing 10% FCS under 5% CO2 at 37° C. The cells in a subconfluent state were treated with EDTA-trypsin, centrifuged, and then suspended in serum free DMEM so as to be 5×10^6 cells/mL. The melanoma cell suspension (100 μL/mouse, 5×10^5 cells) was injected to the tail vein of the mice. The osmotic pumps used were MODEL2002 (for 14-day administration) made by ALZET (Cupertino, Calif,.).
Mice into which an osmotic pump containing 0.9% physiological saline was subcutaneously implanted in the back were assigned to the control group. Similarly, an osmotic pump containing hANP prepared for administration at 0.5 μg/kg/min was subcutaneously implanted into each mouse in the ANP group, an osmotic pump containing mouse BNP prepared for administration at 0.5 μg/kg/min was subcutaneously implanted into each mouse in the BNP group, and an osmotic pump containing hCNP-22 prepared for administration at 2.5 μg/kg/min was subcutaneously implanted into each mouse in the CNP group. To the mice in the sildenafil group, sildenafil citrate at a dosage of 20 mg/kg was intraperitoneally administered once daily. […]

Substance: LKL-ANP: a mutant in which the amino acids at positions 10 to 12 of hANP are replaced with LKL (SLRRSSCFGLKLDRIGAQSGLGCNSFRY; ends and bridges not checked; cysteine pairing not given here; UniProt P01160 124-151, looked up, variant G10L R11K M12L)
- ratio of suppression of EMT induced by TGF-β in terms of E-cad/Ncad [1]: 52.9%

Substance: hCNP6-22: peptide consisting of amino acids from position 6 to position 22 of SEQ ID NO: 7 (ring structure only) (CFGLKLDRIGSMSGLGC; disulfide 1-17 (inferred); listed as Homo sapiens)
- GC-B agonist activity compared with hCNP-22 [2]: comparable to that of hCNP-22

Substance: hCNP: 22-amino acid CNP-22 of human origin, GLSKGCFGLK LDRIGSMSGL GC (SEQ ID NO: 7), GC-B agonist (GLSKGCFGLKLDRIGSMSGLGC; listed as Homo sapiens)
- intracellular cGMP level [3]: did not show such increase
- lung metastasis of melanoma (number of nodules) [4]: significantly suppressed

Substance: nesiritide [hBNP]
- intracellular cGMP level [3]: increased the intracellular cGMP level of the A549 cells in a concentration-dependent manner

— patent publication US20140072557A1, “MEDICINAL AGENT FOR SUPPRESSING MALIGNANT TUMOR METASTASIS” (priority 2011, published 2014)
